These results are taken from patent publication US8124647B2 (priority 2002, dated 2012).

The target in test [1] is T1, human androgen receptor (Homo sapiens, UniProt P10275).
T1 construct: expressed in transfected cells; host or cells: CHO cells, cell line CHO-AR-pMMTV-LUC 1G12-A5-CA
T1 sequence (P10275 1-920): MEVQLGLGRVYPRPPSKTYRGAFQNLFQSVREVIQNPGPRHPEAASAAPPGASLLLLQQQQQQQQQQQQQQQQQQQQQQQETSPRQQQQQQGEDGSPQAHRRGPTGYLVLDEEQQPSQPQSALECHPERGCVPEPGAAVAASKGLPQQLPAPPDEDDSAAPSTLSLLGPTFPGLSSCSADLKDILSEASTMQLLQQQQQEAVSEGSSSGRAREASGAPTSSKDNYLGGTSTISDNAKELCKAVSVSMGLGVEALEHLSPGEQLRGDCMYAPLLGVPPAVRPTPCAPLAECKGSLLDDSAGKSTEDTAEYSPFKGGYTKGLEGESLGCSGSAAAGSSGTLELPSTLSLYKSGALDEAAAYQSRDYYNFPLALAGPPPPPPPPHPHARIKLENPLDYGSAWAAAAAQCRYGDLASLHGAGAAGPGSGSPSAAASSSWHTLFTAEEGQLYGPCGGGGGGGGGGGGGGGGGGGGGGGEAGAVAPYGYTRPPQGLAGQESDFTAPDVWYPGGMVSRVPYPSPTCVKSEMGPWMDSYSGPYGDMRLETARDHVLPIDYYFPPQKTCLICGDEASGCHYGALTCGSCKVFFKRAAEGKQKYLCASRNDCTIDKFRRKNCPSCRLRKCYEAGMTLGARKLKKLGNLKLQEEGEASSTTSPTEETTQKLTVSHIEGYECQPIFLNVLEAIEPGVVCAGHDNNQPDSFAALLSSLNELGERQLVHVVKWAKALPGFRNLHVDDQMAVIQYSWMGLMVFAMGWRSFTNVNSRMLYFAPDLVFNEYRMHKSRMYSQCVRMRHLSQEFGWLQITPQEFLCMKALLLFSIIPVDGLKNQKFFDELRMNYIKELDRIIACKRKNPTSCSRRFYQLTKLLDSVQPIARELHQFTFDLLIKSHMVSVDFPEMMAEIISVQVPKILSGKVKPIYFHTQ
Put plainly: androgenic activity (EC50 and intrinsic activity), transactivation bioassay in CHO-AR-pMMTV-LUC cells (Table 4). In kind it is cell-based. How it is done: (§1) Compounds were tested for their Androgen Receptor activity in a transactivation assay and in a binding assay.
(§2) The (anti-)androgenic activity of test compounds (EC50 and intrinsic activity) was determined in an in vitro bioassay of Chinese hamster ovary (CHO) cells stably transfected with the human androgen receptor expression plasmid and a reporter plasmid in which the MMTV-promoter is linked to the luciferase reporter gene. The cell-line CHO-AR-pMMTV-LUC 1G12-A5-CA is described in Schoonen et al. (2000), Journal of Steroid Biochemistry and Molecular Biology 74(4):213-222. The antiandrogenic activity of a test compound was determined by the inhibition of the transactivation via the androgen receptor of the enzyme luciferase in the presence of 1 nM DHT (5α-dihydrotestosterone, 17β-hydroxy-5α-androstan-3-one). Intrinsic activity of antiandrogenic activity was determined in the presence of the reference antiandrogen 2-Hydroxy-2-methyl-N-(4-nitro-3-trifluoromethyl-phenyl)-propionamide(Hydroxyflutamide), and set at 100%. For androgenic activity, maximal intrinsic activity in the presence of 100 nM DHT was set at 100%.

Test [2] addresses T1, human androgen receptor. In words: cell-based. Conditions: in the presence of 1 nM DHT. How it is done: as §1, §2
The mark [3] stands for this setting: androgenic activity, read-out: ago EC50.
[4] abbreviates: antiandrogenic activity, read-out: ant EC50.

Each structure is given as a SMILES string. Where only a bound is given, the exact number is not on record here.

As a reminder, the EC50 is the concentration at which the effect is half-maximal.

For `COc1ccc2c(Sc3ccccc3[N+](=O)[O-])cn(Cc3ccccc3C(F)(F)F)c2c1` [Compound 12], the results for the EC50 in test [1] (setting [3]) and in test [2] (setting [4]) were under 1000 nM and over 10000 nM, respectively.

With `CC(=O)Nc1ccc2c(Sc3ccccc3[N+](=O)[O-])cn(Cc3cc(F)cc(F)c3)c2c1` [Compound 58, N-[1-(3,5-Difluoro-benzyl)-3-(2-nitro-phenylsulfanyl)-1H-indol-6-yl]-acetamide], the figures for the 50% effective concentration (EC50) in test [1] (setting [3]) and in test [2] (setting [4]) were under 5 nM and over 10000 nM, respectively.

`Nc1ccc2c(Sc3ccccc3[N+](=O)[O-])cn(Cc3cc(F)cc(F)c3)c2c1` [Compound 57, 1-(3,5-Difluoro-benzyl)-3-(2-nitro-phenylsulfanyl)-1H-indol-6-ylamine]: the values for the EC50 in test [1] (setting [3]) and in test [2] (setting [4]) were under 1000 nM and over 10000 nM, respectively.

For the compound `COCCNC(=O)c1ccc2c(Sc3ccccc3[N+](=O)[O-])cn(Cc3cc(F)cc(F)c3)c2c1` [Compound 38], the EC50 in test [1] (setting [3]) is under 5 nM; in test [2] (setting [4]), over 10000 nM.

For `COc1ccc2c(Sc3ccccc3[N+](=O)[O-])cn(Cc3cnc(Cl)s3)c2c1` [Compound 87], the EC50 in test [1] (setting [3]) was 5 to 100 nM; in test [2] (setting [4]) it was over 10000 nM.

With `COc1ccc2c([S+]([O-])c3ccccc3[N+](=O)[O-])cn(Cc3cc(F)cc(F)c3)c2c1` (centres unmarked) [Compound 64, 1-(3,5-Difluoro-benzyl)-6-methoxy-3-(2-nitro-benzenesulfinyl)-1H-indole], the values for the EC50 in test [1] (setting [3]) and in test [2] (setting [4]) were over 10000 nM and under 1000 nM, respectively.

In the case of `COc1ccc2c(c1)c(Sc1ccccc1[N+](=O)[O-])cn2Cc1ccccc1` [Compound 91], the 50% effective concentration (EC50) in test [1] (setting [3]) was over 10000 nM; in test [2] (setting [4]), 1000 to 10000 nM.

Consider `COc1ccc2c(Sc3ccccc3[N+](=O)[O-])cn(Cc3ccc(Cl)c(C(F)(F)F)c3)c2c1` [Compound 76], for which the results for the EC50 in test [1] (setting [3]) and in test [2] (setting [4]) were under 1000 nM and over 10000 nM, respectively.

Consider `O=[N+]([O-])c1ccccc1Sc1cn(Cc2cc(F)cc(F)c2)c2cccc(F)c12` [Compound 51], for which the EC50 in test [1] (setting [3]) was under 5 nM; in test [2] (setting [4]), over 10000 nM.

On to `COc1ccc2c(Sc3ccccc3[N+](=O)[O-])cn(Cc3cccc([N+](=O)[O-])c3)c2c1` [Compound 74], for which the EC50 was under 5 nM in test [1] (ago EC50, androgenic activity) and over 10000 nM in test [2] (ant EC50, antiandrogenic activity).

As to `O=C(NCc1ccccc1)c1ccc2c(Sc3ccccc3[N+](=O)[O-])cn(Cc3cc(F)cc(F)c3)c2c1` [Compound 43], the EC50 in test [1] (setting [3]) was 5 to 100 nM; in test [2] (setting [4]) it was under 1000 nM.

Consider `NC(=O)c1ccc2c(Sc3ccccc3[N+](=O)[O-])cn(Cc3cc(F)cc(F)c3)c2c1` [Compound 33, 1-(3,5-Difluoro-benzyl)-3(2-nitro-phenylsulfanyl)-1H-indole-6-carboxylic acid amide], for which the EC50 is under 5 nM in test [1] (setting [3]) and over 10000 nM in test [2] (setting [4]).

Turning to `CNC(=O)c1ccccc1Sc1cn(Cc2cc(F)cc(F)c2)c2cc(OC)ccc12` [Compound 17, 2-[1-(3,5-Difluoro-benzyl)-6-methoxy-1H-indol-3-ylsulfanyl]-N-methyl-benzamide], the half-maximal effective concentration (EC50) in test [1] (setting [3]) is over 10000 nM; in test [2] (setting [4]) it was under 1000 nM.

Take `COc1ccc2c(Sc3ccccc3[N+](=O)[O-])cn(Cc3cc(F)ccc3C(F)(F)F)c2c1` [Compound 70]: the EC50 is 5 to 100 nM in test [1] (setting [3]) and over 10000 nM in test [2] (setting [4]).

Consider `O=C(Nc1ccc2c(Sc3ccccc3[N+](=O)[O-])cn(Cc3cc(F)cc(F)c3)c2c1)C(F)(F)F` [Compound 59, N-[1-(3,5-Difluoro-benzyl)-3-(2-nitro-phenylsulfanyl)-1H-indol-6-yl]-2,2,2-trifluoro-acetamide], for which the EC50 in test [1] (setting [3]) was under 5 nM; in test [2] (setting [4]), over 10000 nM.

With `O=[N+]([O-])c1ccccc1Sc1cn(Cc2cc(F)cc(F)c2)c2cc(Cl)ccc12` [Compound 25], the EC50 in test [1] (setting [3]) is under 5 nM; in test [2] (setting [4]) it was over 10000 nM.

In the case of `O=[N+]([O-])c1ccccc1Sc1cn(Cc2cc(F)cc(F)c2)c2ccc(F)cc12` [Compound 53], the EC50 is 5 to 100 nM in test [1] (setting [3]) and over 10000 nM in test [2] (setting [4]).

For `CCNC(=O)c1ccc2c(Sc3ccccc3[N+](=O)[O-])cn(Cc3cc(F)cc(F)c3)c2c1` [Compound 45], the 50% effective concentration (EC50) in test [1] (setting [3]) is under 5 nM; in test [2] (setting [4]), over 10000 nM.

With `O=C(NCCO)c1ccc2c(Sc3ccccc3[N+](=O)[O-])cn(Cc3cc(F)cc(F)c3)c2c1` [Compound 37], the EC50 in test [1] (setting [3]) was under 5 nM; in test [2] (setting [4]), over 10000 nM.

For `COc1ccc2c(Sc3ccccc3[N+](=O)[O-])cn(Cc3ccccc3Cl)c2c1` [Compound 3], the results for the EC50 in test [1] (setting [3]) and in test [2] (setting [4]) were under 1000 nM and over 10000 nM, respectively.

Consider `O=[N+]([O-])c1ccccc1Sc1cn(Cc2cc(F)cc(F)c2)c2cc(F)ccc12` [Compound 50], for which the results for the EC50 in test [1] (setting [3]) and in test [2] (setting [4]) were 5 to 100 nM and over 10000 nM, respectively.

In the case of `CNC(=O)c1ccc2c(Sc3ccccc3[N+](=O)[O-])cn(Cc3cc(F)cc(F)c3)c2c1` [Compound 47, 1-(3,5-Difluoro-benzyl)-3-(2-nitro-phenylsulfanyl)-1H-indole-6-carboxylic acid methylamide], the values for the EC50 in test [1] (setting [3]) and in test [2] (setting [4]) were under 5 nM and over 10000 nM, respectively.

Regarding `COc1ccc2c(Sc3cccc[n+]3[O-])cn(Cc3cc(F)cc(F)c3)c2c1` [Compound 66], the EC50 was under 1000 nM in test [1] (setting [3]) and 5 to 100 nM in test [2] (setting [4]).

For `COc1ccc2c(Sc3ccccc3[N+](=O)[O-])cn(Cc3ccccn3)c2c1.Cl` [Compound 10, 6-Methoxy-3-(2-nitro-phenylsulfanyl)-1-pyridin-2-ylmethyl-1H-indole monohydrochloride], the concentration for a half-maximal effect (EC50) in test [1] (setting [3]) was 5 to 100 nM; in test [2] (setting [4]) it was over 10000 nM. Besides, the ant efficacy entry in test [2] (reference antiandrogen Hydroxyflutamide set at 100%) is on record as “− (− <0.20)”.

Regarding `COc1ccc2c(Sc3ccccc3[N+](=O)[O-])cn(Cc3c(C)noc3C)c2c1` [Compound 80], the EC50 in test [1] (setting [3]) and in test [2] (setting [4]) was under 1000 nM each time.

For `COc1ccc2c(Sc3ccccc3[N+](=O)[O-])cn(Cc3ccccc3)c2c1` [Compound 92], the EC50 in test [1] (setting [3]) was under 5 nM; in test [2] (setting [4]), over 10000 nM.

Turning to `COc1ccc2c(Sc3ccccc3[N+](=O)[O-])cn(Cc3cc(F)cc(C(F)(F)F)c3)c2c1` [Compound 69], the EC50 in test [1] (setting [3]) is 5 to 100 nM; in test [2] (setting [4]) it was over 10000 nM.

As for `COc1ccc2c(Sc3ccccc3C#N)cn(Cc3cc(F)cc(F)c3)c2c1` [Compound 20, 2-[1-(3,5-Difluoro-benzyl)-6-methoxy-1H-indol-3-ylsulfanyl]-benzonitrile], the EC50 in test [1] (setting [3]) is 5 to 100 nM; in test [2] (setting [4]), over 10000 nM.

As to `COc1ccc2c(Sc3ccccc3[N+](=O)[O-])cn(Cc3ccccc3C#N)c2c1` [Compound 4], the EC50 in test [1] (setting [3]) was under 1000 nM; in test [2] (setting [4]), 5 to 100 nM.

With `CN(C)CCNC(=O)c1ccc2c(Sc3ccccc3[N+](=O)[O-])cn(Cc3cc(F)cc(F)c3)c2c1` [Compound 36], the values for the 50% effective concentration (EC50) in test [1] (setting [3]) and in test [2] (setting [4]) were 5 to 100 nM and over 10000 nM, respectively.

Turning to `COc1ccc2c(Sc3ccccc3[N+](=O)[O-])cn(Cc3cccc(C)c3)c2c1` [Compound 73], the EC50 in test [1] (setting [3]) is 5 to 100 nM; in test [2] (setting [4]), over 10000 nM.

Turning to `COc1ccc2c(Sc3ccccc3[N+](=O)[O-])cn(Cc3cc(Cl)cc(Cl)c3)c2c1` [Compound 15], the EC50 in test [1] (setting [3]) was 5 to 100 nM; in test [2] (setting [4]), over 10000 nM.

As for `COc1cccc(Cn2cc(Sc3ccccc3[N+](=O)[O-])c3ccc(OC)cc32)c1` [Compound 72], the EC50 in test [1] (setting [3]) was 5 to 100 nM; in test [2] (setting [4]), over 10000 nM.

Take `O=C(O)c1ccc2c(Sc3ccccc3[N+](=O)[O-])cn(Cc3cc(F)cc(F)c3)c2c1` [Compound 30, 1-(3,5-Difluoro-benzyl)-3-(2-nitro-phenylsulfanyl)-1H-indole-6-carboxylic acid]: the values for the EC50 in test [1] (setting [3]) and in test [2] (setting [4]) were under 1000 nM and over 10000 nM, respectively.

As for `COc1ccc2c(Sc3ccccc3CO)cn(Cc3cc(F)cc(F)c3)c2c1` [Compound 16, {2-[1-(3,5-Difluoro-benzyl)-6-methoxy-1H-indol-3-ylsulfanyl]-phenyl}-methanol], the EC50 in test [1] (setting [3]) and in test [2] (setting [4]) was 5 to 100 nM in each case.
